Results from patent US4599357A, “1-mercaptoalkanoylindoline-2-carboxylic acids” (Ciba-Geigy Corporation, priority 1980, dated 1986).

Test system: angiotensin I converting enzyme
Assay: inhibition of the angiotensin I pressor response in anesthetized normotensive rats
Type: in vivo
Procedure: The enzyme renin, normally causes specific hydrolysis of the circulating protein renin-substrate. This hydrolysis generates angiotensin I, which is further hydrolyzed by the action of said converting enzyme to the potent vasoconstrictor angiotensin II. The inhibition of said enzyme prevents the generation of angiotensin II from I and, therefore, attenuates any pressure response following an angiotensin I challenge.
The corresponding in vivo test is performed with male, normotensive rats, which are anesthetized with 100-120 mg/kg i.p. of sodium ethyl-(1-methylpropyl)malonylthiourea. A femoral artery and saphenous vein are cannulated for direct blood pressure measurement and i.v. administration of angiotensin I and compounds of this invention. After the basal blood pressure is stabilized, pressor responses to 3 challenges of 0.33 μg/kg of angiotensin I i.v., in 5 minute intervals, are obtained. Such pressure responses are again obtained 5, 10, 15, 30 and 60 minutes after either i.v., or p.o. administration (stomach tube) of the compounds to be tested, and compared with the initial responses. Any observed decrease of said pressor response is an indication of angiotensin I converting enzyme inhibition, ranging up to 80% after 10 mg/kg i.v., or 50 mg/kg p.o. doses, which decrease may be sustained up to 60 minutes.

C[C@H](CS)C(=O)N1c2ccccc2C[C@H]1C(=O)O [1-(3-mercapto-2S-methylpropanoyl)-indoline-2S-carboxylic acid]
inhibitory effect against the angiotensin I pressure response: inhibitory effect
